Measurements taken from patent US20260109699A1, “AZOLE DERIVATIVES AS SHP2 INHIBITORS” (IRBM S.P.A., priority 2022, published 2026).
pIC50: −log10 of the molar value.

Assays:
[1] = molecular target: T1, SHP-2 enzyme (Met1-Leu525), SHP2wt (Homo sapiens, UniProt Q06124); assay: SHP2 inhibition enzymatic assay; assay type: biochemical; conditions: 0.5 nM SHP-2 activated by 500 nM IRS1 peptide, 75 μM DiFMUP substrate
T1 construct: synthetized by Origene, Met1-Leu525, cat #TP750155; purchased Origene TP750155
T1 sequence (Q06124 1-525): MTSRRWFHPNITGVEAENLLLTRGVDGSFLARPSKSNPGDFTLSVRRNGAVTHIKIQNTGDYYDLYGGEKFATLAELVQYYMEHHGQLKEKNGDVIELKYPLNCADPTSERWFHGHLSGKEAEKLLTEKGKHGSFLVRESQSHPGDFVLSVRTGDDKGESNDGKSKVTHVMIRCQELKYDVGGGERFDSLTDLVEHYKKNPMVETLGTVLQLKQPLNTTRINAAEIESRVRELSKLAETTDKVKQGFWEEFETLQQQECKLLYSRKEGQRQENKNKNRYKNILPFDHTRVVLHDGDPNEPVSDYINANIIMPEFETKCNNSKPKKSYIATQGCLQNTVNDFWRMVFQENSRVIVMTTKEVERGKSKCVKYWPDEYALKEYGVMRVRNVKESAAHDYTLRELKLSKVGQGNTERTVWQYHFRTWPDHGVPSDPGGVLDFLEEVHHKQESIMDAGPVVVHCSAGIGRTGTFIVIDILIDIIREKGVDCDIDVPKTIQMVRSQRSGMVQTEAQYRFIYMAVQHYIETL
How it was run: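 Human SHP2 (Met1-Leu525, 0.5 nM) activated by 500 nM bis-phosphorylated IRS1 peptide, pre-incubated 30 min with compound, then 75 μM DiFMUP for 30 min at rt in HEPES pH 7.2, NaCl/KCl, EDTA, Tween-20, 5 mM DTT. Reaction quenched with bpV, fluorescence read; IC50 by four-parameter logistic fit.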

[2] = system: phospho-ERK1/2 (Thr202/Tyr204); assay: Phospho-ERK cellular assay; assay type: cell-based; conditions: Homo sapiens; KYSE-520 cells, 2 h at 37° C, TR-FRET; read-out: pERK IC50
How it was run: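 KYSE-520 cells treated overnight-after-plating with serially diluted compounds for 2 h at 37° C, then lysed. Phospho-ERK1/2 measured by TR-FRET after overnight antibody incubation at rt; inhibition normalized between DMSO (0%) and no-cell (100%) wells, IC50 from four-parameter logistic fit.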

pIC50 [1]	pIC50 [2]	Structure (SMILES)
≥ 7.30	> 7.00	N[C@@H]1c2ccnn2CC12CCN(c1cnc(Sc3cccc(F)c3C(F)F)cn1)CC2 [Example 71, (S)-1-(5-((2-(difluoromethyl)-3-fluorophenyl)thio)pyrazin-2-yl)-4′H,6′H-spiro[piperidine-4,5′-pyrrolo[1,2-b]pyrazol]-4′-amine]
≥ 7.30	6.30 to 7.00	N[C@@H]1c2ccnn2CC12CCN(c1cnc(Sc3cc(C(F)F)ccc3F)cn1)CC2 [Example 74, (S)-1-(5-((5-(difluoromethyl)-2-fluorophenyl)thio)pyrazin-2-yl)-4′H,6′H-spiro[piperidine-4,5′-pyrrolo[1,2-b]pyrazol]-4′-amine]
≥ 7.30	> 7.00	N[C@@H]1c2ccnn2CC12CCN(c1cnc(Sc3c(F)cccc3F)cn1)CC2 [Example 75, (S)-1-(5-((2,6-difluorophenyl)thio)pyrazin-2-yl)-4′H,6′H-spiro[piperidine-4,5′-pyrrolo[1,2-b]pyrazol]-4′-amine]
≥ 7.30	> 7.00	N#Cc1ccc(Sc2cnc(N3CCC4(CC3)Cn3nccc3[C@H]4N)cn2)c(F)c1 [Example 76, (S)-4-((5-(4′-amino-4′H,6′H-spiro[piperidine-4,5′-pyrrolo[1,2-b]pyrazol]-1-yl)pyrazin-2-yl)thio)-3-fluorobenzonitrile]
≥ 7.30	6.30 to 7.00	N[C@@H]1c2ccnn2CC12CCN(c1cnc(Sc3cc(F)c(F)cc3F)cn1)CC2 [Example 77, (S)-1-(5-((2,4,5-trifluorophenyl)thio)pyrazin-2-yl)-4′H,6′H-spiro[piperidine-4,5′-pyrrolo[1,2-b]pyrazol]-4′-amine]

More lines, now with the values behind:

Structure (SMILES)	pIC50 [1]	pIC50 [2]
N[C@@H]1c2ccnn2CC12CCN(c1cnc(Sc3ccc(Cl)c4ncccc34)cn1)CC2 [Example 70, (S)-1-(5-((8-chloroquinolin-5-yl)thio)pyrazin-2-yl)-4′H,6′H-spiro[piperidine-4,5′-pyrrolo[1,2-b]pyrazol]-4′-amine]	≥ 7.30	> 7.00
N[C@@H]1c2ccnn2CC12CCN(c1cnc(Sc3ccccc3C(F)F)cn1)CC2 [Example 72, (S)-1-(5-((2-(difluoromethyl)phenyl)thio)pyrazin-2-yl)-4′H,6′H-spiro[piperidine-4,5′-pyrrolo[1,2-b]pyrazol]-4′-amine]	≥ 7.30	> 7.00
N[C@@H]1c2ccnn2CC12CCN(c1cnc(Sc3ccc(OC(F)F)c4ncccc34)cn1)CC2 [Example 73, (S)-1-(5-((8-(difluoromethoxy)quinolin-5-yl)thio)pyrazin-2-yl)-4′H,6′H-spiro[piperidine-4,5′-pyrrolo[1,2-b]pyrazol]-4′-amine]	≥ 7.30	> 7.00
N[C@@H]1c2ccnn2CC12CCN(c1cnc(Oc3ccccc3F)cn1)CC2 [Example 78, (S)-1-(5-(2-fluorophenoxy)pyrazin-2-yl)-4′H,6′H-spiro[piperidine-4,5′-pyrrolo[1,2-b]pyrazol]-4′-amine]	≥ 7.30	6.30 to 7.00
N[C@@H]1c2ccnn2CC12CCN(c1cnc(Oc3ccc(Cl)cc3F)cn1)CC2 [Example 79, (S)-1-(5-(4-chloro-2-fluorophenoxy)pyrazin-2-yl)-4′H,6′H-spiro[piperidine-4,5′-pyrrolo[1,2-b]pyrazol]-4′-amine]	≥ 7.30	6.30 to 7.00
N[C@@H]1c2ccnn2CC12CCN(c1cnc(Sc3cccc(F)c3-n3cccn3)cn1)CC2 [Example 80, (S)-1-(5-((3-fluoro-2-(1H-pyrazol-1-yl)phenyl)thio)pyrazin-2-yl)-4′H,6′H-spiro[piperidine-4,5′-pyrrolo[1,2-b]pyrazol]-4′-amine]	≥ 7.30	6.30 to 7.00
N[C@@H]1c2ccnn2CC12CCN(c1cnc(Sc3cccc(-n4cccn4)c3F)cn1)CC2 [Example 81, (S)-1-(5-((2-fluoro-3-(1H-pyrazol-1-yl)phenyl)thio)pyrazin-2-yl)-4′H,6′H-spiro[piperidine-4,5′-pyrrolo[1,2-b]pyrazol]-4′-amine]	≥ 7.30	> 7.00
